According to ChEMBL document CHEMBL3046685, “Otebo bean (Phaseolus vulgaris) sensitivity to pre-emergence herbicides” (Crop Prot, 2006):

What was measured:
Phaseolus vulgaris [1] = test: Phytotoxicity in Phaseolus vulgaris (otebo bean) assessed as change in moisture content at 1250 to 2500 g ai/ha applied as spray during preemergence treatment for 1 to 2 days; type: organism-based; conditions: in vivo, other
Phaseolus vulgaris [2] = test: Phytotoxicity in Phaseolus vulgaris (otebo bean) assessed as visual injury at 1250 g ai/ha applied as spray during pre-emergence treatment for 1 to 2 days measured 28 days post emergence relative to untreated control; type: organism-based; conditions: in vivo, other
Phaseolus vulgaris [3] = test: Phytotoxicity in Phaseolus vulgaris (otebo bean) assessed as shoot dry weight at 2500 g ai/ha applied as spray during pre-emergence treatment for 1 to 2 days measured 42 days post emergence (reference value: 164 g); type: organism-based; conditions: in vivo, other
Phaseolus vulgaris [4] = test: Phytotoxicity in Phaseolus vulgaris (otebo bean) assessed as visual injury at 1250 g ai/ha applied as spray during pre-emergence treatment for 1 to 2 days measured 7 days post emergence relative to untreated control; type: organism-based; conditions: in vivo, other
Phaseolus vulgaris [5] = test: Increase in Phaseolus vulgaris (otebo bean) yield at 2500 g ai/ha applied as spray during pre-emergence treatment for 1 to 2 days (reference value: 3.8 t/ha); type: functional
Phaseolus vulgaris [6] = test: Phytotoxicity in Phaseolus vulgaris (otebo bean) assessed as plant height at 1250 g ai/ha applied as spray during pre-emergence treatment for 1 to 2 days measured 28 days post emergence (reference value: 29 cm); type: organism-based; conditions: in vivo, other
Phaseolus vulgaris [7] = test: Phytotoxicity in Phaseolus vulgaris (otebo bean) assessed as shoot dry weight at 1250 g ai/ha applied as spray during pre-emergence treatment for 1 to 2 days measured 42 days post emergence (reference value: 164 g); type: organism-based; conditions: in vivo, other
Phaseolus vulgaris [8] = test: Phytotoxicity in Phaseolus vulgaris (otebo bean) assessed as plant height at 2500 g ai/ha applied as spray during pre-emergence treatment for 1 to 2 days measured 28 days post emergence (reference value: 29 cm); type: organism-based; conditions: in vivo, other
Phaseolus vulgaris [9] = test: Phytotoxicity in Phaseolus vulgaris (otebo bean) assessed as visual injury at 1250 g ai/ha applied as spray during pre-emergence treatment for 1 to 2 days measured 14 days post emergence relative to untreated control; type: organism-based; conditions: in vivo, other
Vigna angularis [10] = test: Phytotoxicity in Vigna angularis (adzuki bean) assessed as reduction in shoot dry weight at 2500 g ai/ha applied prior to planting relative to control; type: organism-based; set-up: scale not given: the % may be the effect or the level left; conditions: in vivo, other
Phaseolus vulgaris [11] = test: Phytotoxicity in Phaseolus vulgaris (otebo bean) assessed as visual injury at 2500 g ai/ha applied as spray during pre-emergence treatment for 1 to 2 days measured 7 days post emergence relative to untreated control; type: organism-based; conditions: in vivo, other
Phaseolus vulgaris [12] = test: Increase in Phaseolus vulgaris (otebo bean) yield at 1250 g ai/ha applied as spray during pre-emergence treatment for 1 to 2 days (reference value: 3.8 t/ha); type: functional
Phaseolus vulgaris [13] = test: Phytotoxicity in Phaseolus vulgaris (otebo bean) assessed as visual injury at 2500 g ai/ha applied as spray during pre-emergence treatment for 1 to 2 days measured 14 days post emergence relative to untreated control; type: organism-based; conditions: in vivo, other
Vigna angularis [14] = test: Phytotoxicity in Vigna angularis (adzuki bean) assessed as visual injury at 2500 g ai/ha applied prior to planting relative to control; type: organism-based; conditions: in vivo, other
Vigna angularis [15] = test: Phytotoxicity in Vigna angularis (adzuki bean) assessed as reduction in crop yield at 2500 g ai/ha applied prior to planting relative to control; type: organism-based; conditions: in vivo, other
Phaseolus vulgaris [16] = test: Phytotoxicity in Phaseolus vulgaris (otebo bean) assessed as visual injury at 2500 g ai/ha applied as spray during pre-emergence treatment for 1 to 2 days measured 28 days post emergence relative to untreated control; type: organism-based; conditions: in vivo, other
Phaseolus vulgaris [17] = test: Phytotoxicity in Phaseolus vulgaris (otebo bean) assessed as shoot dry weight at 3200 g ai/ha applied as spray during pre-emergence treatment for 1 to 2 days measured 42 days post emergence (reference value: 164 g); type: organism-based; conditions: in vivo, other
Phaseolus vulgaris [18] = test: Phytotoxicity in Phaseolus vulgaris (otebo bean) assessed as visual injury at 3200 g ai/ha applied as spray during pre-emergence treatment for 1 to 2 days measured 28 days post emergence relative to untreated control; type: organism-based; conditions: in vivo, other
Phaseolus vulgaris [19] = test: Increase in Phaseolus vulgaris (otebo bean) yield at 3200 g ai/ha applied as spray during pre-emergence treatment for 1 to 2 days (reference value: 3.8 t/ha); type: functional
Phaseolus vulgaris [20] = test: Phytotoxicity in Phaseolus vulgaris (otebo bean) assessed as visual injury at 3200 g ai/ha applied as spray during pre-emergence treatment for 1 to 2 days measured 7 days post emergence relative to untreated control; type: organism-based; conditions: in vivo, other
Phaseolus vulgaris [21] = test: Phytotoxicity in Phaseolus vulgaris (otebo bean) assessed as visual injury at 1600 g ai/ha applied as spray during pre-emergence treatment for 1 to 2 days measured 28 days post emergence relative to untreated control; type: organism-based; conditions: in vivo, other
Phaseolus vulgaris [22] = test: Phytotoxicity in Phaseolus vulgaris (otebo bean) assessed as shoot dry weight at 1600 g ai/ha applied as spray during pre-emergence treatment for 1 to 2 days measured 42 days post emergence (reference value: 164 g); type: organism-based; conditions: in vivo, other
Phaseolus vulgaris [23] = test: Phytotoxicity in Phaseolus vulgaris (otebo bean) assessed as plant height at 1600 g ai/ha applied as spray during pre-emergence treatment for 1 to 2 days measured 28 days post emergence (reference value: 29 cm); type: organism-based; conditions: in vivo, other
Phaseolus vulgaris [24] = test: Phytotoxicity in Phaseolus vulgaris (otebo bean) assessed as visual injury at 1600 g ai/ha applied as spray during pre-emergence treatment for 1 to 2 days measured 7 days post emergence relative to untreated control; type: organism-based; conditions: in vivo, other
Phaseolus vulgaris [25] = test: Increase in Phaseolus vulgaris (otebo bean) yield at 1600 g ai/ha applied as spray during pre-emergence treatment for 1 to 2 days (reference value: 3.8 t/ha); type: functional
Phaseolus vulgaris [26] = test: Phytotoxicity in Phaseolus vulgaris (otebo bean) assessed as visual injury at 3200 g ai/ha applied as spray during pre-emergence treatment for 1 to 2 days measured 14 days post emergence relative to untreated control; type: organism-based; conditions: in vivo, other
Phaseolus vulgaris [27] = test: Phytotoxicity in Phaseolus vulgaris (otebo bean) assessed as plant height at 3200 g ai/ha applied as spray during pre-emergence treatment for 1 to 2 days measured 28 days post emergence (reference value: 29 cm); type: organism-based; conditions: in vivo, other
Phaseolus vulgaris [28] = test: Phytotoxicity in Phaseolus vulgaris (otebo bean) assessed as change in moisture content at 1600 to 3200 g ai/ha applied as spray during preemergence treatment for 1 to 2 days; type: organism-based; conditions: in vivo, other
Phaseolus vulgaris [29] = test: Phytotoxicity in Phaseolus vulgaris (otebo bean) assessed as visual injury at 1600 g ai/ha applied as spray during pre-emergence treatment for 1 to 2 days measured 14 days post emergence relative to untreated control; type: organism-based; conditions: in vivo, other

COCC(C)N(C(=O)CCl)c1c(C)csc1C (centres undefined) [DIMETHENAMID]
Activity (Phaseolus vulgaris [1]): Non-toxic
Activity (Phaseolus vulgaris [2]): 0%
Activity (Phaseolus vulgaris [3]): 154 g
Activity (Phaseolus vulgaris [4]): 1%
Crop_yield (Phaseolus vulgaris [5]): 4.5 tons/ha
Activity (Phaseolus vulgaris [6]): 30 cm
Activity (Phaseolus vulgaris [7]): 167 g
Activity (Phaseolus vulgaris [8]): 29 cm
Activity (Phaseolus vulgaris [9]): 1%
Activity (Vigna angularis [10]): 53%
Activity (Phaseolus vulgaris [11]): 4%
Crop_yield (Phaseolus vulgaris [12]): 4.5 tons/ha
Activity (Phaseolus vulgaris [13]): 3%
Activity (Vigna angularis [14]): 37%
Crop_yield (Vigna angularis [15]): 38%
Activity (Phaseolus vulgaris [16]): 1%

CCc1cccc(C)c1N(C(=O)CCl)[C@@H](C)COC [S-METOLACHLOR]
Activity (Phaseolus vulgaris [17]): 164 g
Activity (Phaseolus vulgaris [18]): 0%
Crop_yield (Phaseolus vulgaris [19]): 4.6 tons/ha
Activity (Phaseolus vulgaris [20]): 4%
Activity (Phaseolus vulgaris [21]): 0%
Activity (Phaseolus vulgaris [22]): 175 g
Activity (Phaseolus vulgaris [23]): 30 cm
Activity (Phaseolus vulgaris [24]): 2%
Crop_yield (Phaseolus vulgaris [25]): 4.1 tons/ha
Activity (Phaseolus vulgaris [26]): 2%
Activity (Phaseolus vulgaris [27]): 29 cm
Activity (Phaseolus vulgaris [28]): Non-toxic
Activity (Phaseolus vulgaris [29]): 1%
